#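 Dose response: 5 concentrations. Exposure: 48 h. Format: 96-well plates. Endpoint: linear interpolation; highest concentration if not reached. GI50: concentration for 50% inhibition of growth.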 Activity calls are given as the source filed them. No stated cut-off is given here; in the data, active = GI50 up to about 1.1 µM and inactive = higher.
# Key:
# Assay in all cases: NCI tumour cell line growth inhibition, 48 h
# [1] = tested on: MCF7
# [2] = tested on: UACC-257
# [3] = tested on: SF-539
# [4] = tested on: SK-OV-3
# [5] = tested on: KM12
# [6] = tested on: MDA-MB-231
# [7] = tested on: OVCAR-8
# [8] = tested on: UO-31
# [9] = tested on: NCI-H226
# [10] = tested on: NCI-H460
# [11] = tested on: SK-MEL-5
# [12] = tested on: CCRF-CEM
# [13] = tested on: A498
# [14] = tested on: M14
# [15] = tested on: OVCAR-4
# [16] = tested on: U-251
# [17] = tested on: SW-620
# [18] = tested on: HCT-116
# [19] = tested on: COLO 205
# [20] = tested on: SK-MEL-28
# [21] = tested on: HOP-62
# [22] = tested on: EKVX
# [23] = tested on: MOLT-4
# [24] = tested on: HCC 2998
# [25] = tested on: NCI-H23
# [26] = tested on: SK-MEL-2
# [27] = tested on: HT-29
# [28] = tested on: HL-60
# [29] = tested on: Malme-3M
# [30] = tested on: RXF 393
# [31] = tested on: UACC-62
# [32] = tested on: PC-3
# [33] = tested on: SF-295
# [34] = tested on: HCT-15
# [35] = tested on: Hs-578T
# [36] = tested on: SNB-75
# [37] = tested on: 786-0
# [38] = tested on: ACHN
# [39] = tested on: LOX IMVI
# [40] = tested on: OVCAR-3
# [41] = tested on: SN12C
# [42] = tested on: IGROV-1
# [43] = tested on: HOP-92
# [44] = tested on: NCI/ADR-RES
# [45] = tested on: SR
# [46] = tested on: CAKI-1
# [47] = tested on: A549
# [48] = tested on: OVCAR-5
# [49] = tested on: TK-10
# [50] = tested on: SNB-19
# [51] = tested on: K562
# [52] = tested on: BT-549
# [53] = tested on: MDA-N
# [54] = tested on: DU-145
# [55] = tested on: SF-268
# [56] = tested on: RPMI-8226
# [57] = tested on: MDA-MB-435
# [58] = tested on: NCI-H522
structure (smiles),measurement,setting,value
CC(C)NC(=O)N(Nc1ccccc1)C(C)(C)C,GI50,[1],> 100 µM (inactive)
same,GI50,[2],> 100 µM (inactive)
same,GI50,[3],> 100 µM (inactive)
same,GI50,[4],> 100 µM (inactive)
same,GI50,[5],> 100 µM (inactive)
same,GI50,[6],> 100 µM (inactive)
same,GI50,[7],> 100 µM (inactive)
same,GI50,[8],96.2 µM (inactive)
same,GI50,[9],> 100 µM (inactive)
same,GI50,[10],> 100 µM (inactive)
same,GI50,[11],> 100 µM (inactive)
same,GI50,[12],> 100 µM (inactive)
same,GI50,[13],> 100 µM (inactive)
same,GI50,[14],> 100 µM (inactive)
same,GI50,[15],> 100 µM (inactive)
same,GI50,[16],> 100 µM (inactive)
same,GI50,[17],> 100 µM (inactive)
same,GI50,[18],> 100 µM (inactive)
same,GI50,[19],> 100 µM (inactive)
same,GI50,[20],> 100 µM (inactive)
same,GI50,[21],> 100 µM (inactive)
same,GI50,[22],> 100 µM (inactive)
same,GI50,[23],> 100 µM (inactive)
same,GI50,[24],> 100 µM (inactive)
same,GI50,[25],> 100 µM (inactive)
same,GI50,[26],> 100 µM (inactive)
same,GI50,[27],> 100 µM (inactive)
same,GI50,[28],37.2 µM (inactive)
same,GI50,[29],> 100 µM (inactive)
same,GI50,[30],> 100 µM (inactive)
same,GI50,[31],> 100 µM (inactive)
same,GI50,[32],> 100 µM (inactive)
same,GI50,[33],> 100 µM (inactive)
same,GI50,[34],> 100 µM
same,GI50,[35],> 100 µM (inactive)
same,GI50,[36],73.8 µM (inactive)
same,GI50,[37],> 100 µM (inactive)
same,GI50,[38],> 100 µM (inactive)
same,GI50,[39],> 100 µM (inactive)
same,GI50,[40],> 100 µM (inactive)
same,GI50,[41],> 100 µM (inactive)
same,GI50,[42],> 100 µM (inactive)
same,GI50,[43],> 100 µM (inactive)
same,GI50,[44],> 100 µM (inactive)
same,GI50,[45],> 100 µM (inactive)
same,GI50,[46],> 100 µM (inactive)
same,GI50,[47],> 100 µM (inactive)
same,GI50,[48],> 100 µM (inactive)
same,GI50,[49],> 100 µM (inactive)
same,GI50,[50],> 100 µM (inactive)
same,GI50,[51],> 100 µM (inactive)
same,GI50,[52],> 100 µM (inactive)
same,GI50,[53],> 100 µM (inactive)
C[C@]12C[C@@H](c3ccccc3)Nc3ccccc3N1C(c1ccccc1)=NO2,GI50,[1],31 µM (inactive)
same,GI50,[2],33.8 µM (inactive)
same,GI50,[3],33.4 µM (inactive)
same,GI50,[4],> 100 µM (inactive)
same,GI50,[5],33.6 µM (inactive)
same,GI50,[6],45.5 µM (inactive)
same,GI50,[7],36.1 µM (inactive)
same,GI50,[8],29.6 µM (inactive)
same,GI50,[9],32.4 µM (inactive)
same,GI50,[10],52.1 µM (inactive)
same,GI50,[11],16.1 µM (inactive)
same,GI50,[12],35.9 µM (inactive)
same,GI50,[13],43.3 µM (inactive)
same,GI50,[14],32.5 µM (inactive)
same,GI50,[15],24.9 µM (inactive)
same,GI50,[16],44.2 µM (inactive)
same,GI50,[17],61.1 µM (inactive)
same,GI50,[18],37.9 µM (inactive)
same,GI50,[54],92.3 µM (inactive)
same,GI50,[19],19 µM (inactive)
same,GI50,[21],77.1 µM (inactive)
same,GI50,[22],24.3 µM (inactive)
same,GI50,[23],18 µM (inactive)
same,GI50,[24],81.3 µM (inactive)
same,GI50,[25],30.7 µM (inactive)
same,GI50,[55],88.5 µM (inactive)
same,GI50,[56],20.3 µM (inactive)
same,GI50,[26],25.6 µM (inactive)
same,GI50,[27],30.6 µM (inactive)
same,GI50,[28],46.2 µM (inactive)
same,GI50,[29],42.9 µM (inactive)
same,GI50,[30],51.6 µM (inactive)
same,GI50,[31],33.4 µM (inactive)
same,GI50,[32],43 µM (inactive)
same,GI50,[33],16 µM (inactive)
same,GI50,[34],35.4 µM
same,GI50,[35],77.8 µM (inactive)
same,GI50,[57],24.5 µM (inactive)
same,GI50,[36],16.6 µM (inactive)
same,GI50,[37],56.6 µM (inactive)
same,GI50,[38],33.9 µM (inactive)
same,GI50,[40],46.8 µM (inactive)
same,GI50,[41],49.3 µM (inactive)
same,GI50,[42],38.1 µM (inactive)
same,GI50,[43],18.5 µM (inactive)
same,GI50,[44],45.1 µM (inactive)
same,GI50,[45],1.8 µM (inactive)
same,GI50,[58],35.9 µM (inactive)
same,GI50,[46],37.1 µM (inactive)
same,GI50,[47],54.3 µM (inactive)
same,GI50,[48],33.2 µM (inactive)
same,GI50,[49],34.4 µM (inactive)
same,GI50,[50],89.7 µM (inactive)
same,GI50,[51],35.4 µM (inactive)
same,GI50,[52],40.9 µM (inactive)
same,GI50,[53],26.2 µM (inactive)

# — ChEMBL document CHEMBL1201862, “PubChem BioAssay data set” (2004)
